Experimental findings from patent US11104661B1, “Inhibiting human integrin (α-4) (β-7)” (Morphic Therapeutic, Inc., priority 2019, dated 2021) are described below.

One test concerns the target T1, α4β7 (Homo sapiens, UniProt P13612+P26010).
T1 construct: endogenous in cells; host or cells: RPMI 8866 cells
T1 sequence (P13612 34-1032): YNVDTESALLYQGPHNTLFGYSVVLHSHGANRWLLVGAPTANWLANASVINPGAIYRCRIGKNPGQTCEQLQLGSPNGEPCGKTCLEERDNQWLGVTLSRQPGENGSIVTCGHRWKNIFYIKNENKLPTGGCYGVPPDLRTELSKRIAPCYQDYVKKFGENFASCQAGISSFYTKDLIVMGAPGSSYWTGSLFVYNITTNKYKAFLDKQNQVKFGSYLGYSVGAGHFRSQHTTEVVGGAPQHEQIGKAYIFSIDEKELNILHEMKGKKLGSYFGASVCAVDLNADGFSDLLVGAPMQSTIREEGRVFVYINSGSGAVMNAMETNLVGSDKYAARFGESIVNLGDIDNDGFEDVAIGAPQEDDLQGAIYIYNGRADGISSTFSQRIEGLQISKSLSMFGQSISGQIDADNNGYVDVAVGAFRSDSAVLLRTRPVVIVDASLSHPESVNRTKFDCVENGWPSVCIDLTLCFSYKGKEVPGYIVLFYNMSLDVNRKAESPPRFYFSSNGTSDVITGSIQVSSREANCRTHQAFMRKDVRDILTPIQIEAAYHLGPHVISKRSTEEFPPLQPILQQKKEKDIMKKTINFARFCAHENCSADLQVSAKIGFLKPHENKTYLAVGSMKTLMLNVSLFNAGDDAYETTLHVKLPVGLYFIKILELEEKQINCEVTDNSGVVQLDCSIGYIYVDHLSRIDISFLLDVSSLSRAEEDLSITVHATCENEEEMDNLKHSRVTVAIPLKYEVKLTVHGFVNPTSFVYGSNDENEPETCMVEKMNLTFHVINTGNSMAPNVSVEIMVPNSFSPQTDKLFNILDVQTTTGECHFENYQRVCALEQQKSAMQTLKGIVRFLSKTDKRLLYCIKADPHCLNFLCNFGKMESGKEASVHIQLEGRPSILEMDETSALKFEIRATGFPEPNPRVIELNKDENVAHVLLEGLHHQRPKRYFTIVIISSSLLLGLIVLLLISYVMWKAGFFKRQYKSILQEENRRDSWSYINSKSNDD
T1 sequence (P26010 20-798): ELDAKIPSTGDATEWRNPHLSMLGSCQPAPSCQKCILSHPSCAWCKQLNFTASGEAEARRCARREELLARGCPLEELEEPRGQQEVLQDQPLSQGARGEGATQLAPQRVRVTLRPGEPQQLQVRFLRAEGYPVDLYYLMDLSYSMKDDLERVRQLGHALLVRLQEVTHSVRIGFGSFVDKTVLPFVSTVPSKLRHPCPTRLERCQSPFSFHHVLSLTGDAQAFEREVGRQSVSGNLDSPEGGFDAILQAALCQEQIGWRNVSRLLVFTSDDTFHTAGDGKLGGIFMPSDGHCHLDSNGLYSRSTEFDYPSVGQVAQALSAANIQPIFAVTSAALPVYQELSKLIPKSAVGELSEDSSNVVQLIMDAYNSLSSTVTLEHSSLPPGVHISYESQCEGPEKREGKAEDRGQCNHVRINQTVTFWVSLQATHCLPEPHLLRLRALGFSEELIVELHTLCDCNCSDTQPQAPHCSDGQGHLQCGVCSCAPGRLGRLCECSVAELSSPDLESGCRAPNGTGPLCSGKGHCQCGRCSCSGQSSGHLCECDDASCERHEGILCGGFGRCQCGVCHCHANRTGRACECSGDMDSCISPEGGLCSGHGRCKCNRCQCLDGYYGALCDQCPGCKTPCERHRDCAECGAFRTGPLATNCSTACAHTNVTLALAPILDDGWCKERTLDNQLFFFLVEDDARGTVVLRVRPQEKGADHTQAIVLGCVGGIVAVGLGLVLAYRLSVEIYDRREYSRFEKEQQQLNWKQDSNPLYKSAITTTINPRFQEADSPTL
Put plainly: Cell-based MAdCAM-1 ligand binding assay (LBA) on RPMI 8866 cells (Example 6). The note with it: MAdCAM-1-Fc Dylight 650, 3 mM manganese chloride, flow cytometry, Table 3, read-out: LB Assay (Example 6). The text has this: Compounds of Formula (I) were further evaluated using a Ligand binding assay (LBA) to examine compound potency of free ligand binding to receptors expressed on cells. The MAdCAM ligand binding assay uses flow cytometry to measure the binding of fluorescently-labeled MAdCAM-1-Fc to RPMI 8866 cells in the presence of Mn++. This assay assesses the binding of compounds to native full-length receptors on the cell surface. […] Ligand binding assays (LBA) are used to examine compound potency and selectivity of free ligand binding to receptors expressed on cells.
Three in vitro assays were used to examine the α4β7 mechanistic process used by cells: 1) ligand:receptor affinity, 2) the avidity of those interactions on a cell's surface, and 3) how those interactions fare under an imposing force. In Example 5, a Fluorescence Polarization (FP) assay is used to measure compound activity through binding competition with the fluorescein-labeled peptide. In Example 6, the potency of compounds against α4β7 is measured in the cell-based ligand binding assay (LBA), using RPMI 8866 cells incubated with the compound samples in competition with soluble MAdCAM-1 ligand. In Example 7, activity of compounds is evaluated in a cell adhesion assay that mechanistically tests what occurs in vivo when trafficking cells utilize α4β7 to adhere to MAdCAM-1 expressing HEVs of the gut during the extravasation process. In the cell adhesion assay of Example 7, a MAdCAMI1-(Fc) is coated on plastic, and α4β7 expressing cells (RPMI-8866) are allowed to adhere to the coated surface in the presence of the test compounds. Next, the force of washing with buffer is applied to cells thereby testing the strength of that adhesion. Unattached cells are removed and the remaining adherent cells are quantified.
5 ul of 33 nM MAdCAM-1-Fc fluorescently labeled with Dylight 650 in 50 mM HEPES pH 7.3, 150 mM sodium chloride, and 1% bovine serum albumin was added to the cells. The samples were incubated for 45 minutes at room temperature, fixed with 0.8% formaldehyde for 30 minutes at room temperature, and washed with 50 mM Tris pH 7.5, 150 mM NaCl, 1 mM EDTA, and 1% bovine serum albumin. Fluorescence intensity for each cell was measured via flow cytometry. Dead cells were excluded from further analysis based on staining with the 780 fixable viability dye. Median fluorescence intensity for Dylight 650 was determined for each sample and concentration-response curves were analyzed for IC50 values using 4-parameter non-linear regression analysis.
(In general: A flow cytometer gives signals particle by particle.)
As to `Cc1cc(-c2c(C)ccc(F)c2C)cc([C@H](CC(=O)O)NC(=O)C(CC(C)C)n2cc(CCN3CCC3)c(C(F)(F)F)cc2=O)c1F` (single isomer, unassigned) [AF-P2], the IC50 was under 10 nM.

On to `COc1ccc(C)c(-c2cc(C)c(F)c([C@H](CC(=O)O)NC(=O)C(CC(C)C)n3cc(CCN4CCC4)c(C(F)(F)F)cc3=O)c2)c1C` (single isomer, unassigned) [AG-P2], for which the IC50 is under 10 nM.

As for `Cc1cc(-c2c(C)cccc2C)cc([C@H](CC(=O)O)NC(=O)C(CC(C)C)n2cc(CCN3CC[C@@H](F)C3)cc(F)c2=O)c1F` (single isomer, unassigned) [AU-P2], the IC50 is under 10 nM.

The test is the same for the next values; noted with them: MAdCAM-1-Fc Dylight 650, 3 mM manganese chloride, flow cytometry, Table 4 comparative compounds, read-out: LB Assay (Example 6).
On to `Cc1cccc(C)c1-c1cccc([C@H](CC(=O)O)NC(=O)[C@H](CC(C)C)n2cc(CCN(C)C)ccc2=O)c1`, for which the IC50 was under 10 nM.

In the case of `Cc1cccc(C)c1-c1cccc([C@H](CC(=O)O)NC(=O)[C@H](CC(C)C)n2ccc(CCN(C)C)cc2=O)c1`, the IC50 is under 10 nM.

For `Cc1cccc(C)c1-c1cccc([C@H](CC(=O)O)NC(=O)[C@H](CC(C)C)n2cccc(CCN(C)C)c2=O)c1`, the IC50 was in the range of 10 to 500 nM.

As to `Cc1cccc(C)c1-c1cccc([C@H](CC(=O)O)NC(=O)[C@H](CC(C)C)n2cc(CN3CC[C@@H](F)C3)ccc2=O)c1`, the IC50 is under 10 nM.

For the compound `Cc1cccc(C)c1-c1cncc([C@H](CC(=O)O)NC(=O)[C@H](CC(C)C)n2ccc(C(F)(F)F)cc2=O)c1`, the IC50 is under 10 nM.

Consider `Cc1ccn([C@@H](CC(C)C)C(=O)N[C@@H](CC(=O)O)c2cncc(-c3c(C)cccc3C)c2)c(=O)c1`, for which the IC50 is under 10 nM.

Consider `Cc1cccc(C)c1-c1cncc([C@H](CC(=O)O)NC(=O)[C@H](CC(C)C)n2cc(CN3CC(F)C3)ccc2=O)c1`, for which the IC50 was under 10 nM.

For the compound `Cc1cccc(C)c1-c1cncc([C@H](CC(=O)O)NC(=O)[C@H](CC(C)C)N2CC[C@@H](C(F)(F)F)CC2=O)c1`, the IC50 lay within 10 to 500 nM.

On to `CC(C)C[C@@H](C(=O)N[C@@H](CC(=O)O)c1ccc(-c2ccc(F)cc2)cc1)n1cc(CCN(C)C)c(C(F)(F)F)cc1=O`, for which the IC50 is 10 to 500 nM.

For `CC(C)C[C@@H](C(=O)N[C@@H](CC(=O)O)c1ccc(-c2ccc(F)cc2)cc1)n1cc(CCN2CC(F)C2)cc(F)c1=O`, the IC50 was 10 to 500 nM.

For the compound `CC(C)C[C@@H](C(=O)N[C@@H](CC(=O)O)c1ccc(-c2ccccc2)cc1)n1cc(CCN2CC(F)C2)cc(F)c1=O`, the IC50 was 10 to 500 nM.

Turning to `Cc1ccccc1-c1cccc([C@H](CC(=O)O)NC(=O)[C@H](CC(C)C)n2cccc(C)c2=O)c1`, the IC50 is 10 to 500 nM.

With `CC(C)C[C@@H](C(=O)N[C@@H](CC(=O)O)c1ccc(-c2ccccc2)cc1)n1cc(CCN(C)C)c(C(F)(F)F)cc1=O`, the IC50 is 10 to 500 nM.

In the case of `Cc1ccc([C@@H](C(=O)N[C@@H](CC(=O)O)c2cncc(-c3c(C)cccc3C)c2)N2CC(C)CCC2=O)cc1` (stereo partly shown), the IC50 was 10 to 500 nM.

In the case of `COC[C@@H](C(=O)N[C@@H](CC(=O)O)c1cccc(-c2c(C)cccc2C)c1)n1ccc(C)cc1=O`, the IC50 was 10 to 500 nM.

As for `Cc1cccc(C)c1-c1cccc([C@H](CC(=O)O)NC(=O)[C@H](CC(C)C)n2cc(CN3CC(F)C3)ccc2=O)c1` [drawing 572], the IC50 is under 10 nM.

`Cc1cccc(C)c1-c1cccc([C@H](CC(=O)O)NC(=O)[C@H](CC(C)C)n2cc(CN3CC(F)C3)ccc2=O)c1` [drawing 577]: the IC50 was under 10 nM.

As for `Cc1cccc(C)c1-c1cccc([C@H](CC(=O)O)NC(=O)[C@H](CC(C)C)n2cc(CN3CC(F)C3)ccc2=O)c1` [drawing 585], the IC50 is under 10 nM.

`Cc1cccc(C)c1-c1cccc([C@H](CC(=O)O)NC(=O)[C@H](CC(C)C)n2cc(CN3CC(F)C3)ccc2=O)c1` [drawing 589]: the IC50 is under 10 nM.

In the case of `Cc1cccc(C)c1-c1cccc([C@H](CC(=O)O)NC(=O)[C@H](CC(C)C)n2cc(CN3CC(F)C3)ccc2=O)c1` [drawing 594], the IC50 is under 10 nM.

`Cc1cccc(C)c1-c1cccc([C@H](CC(=O)O)NC(=O)[C@H](CC(C)C)n2cc(CN3CC(F)C3)ccc2=O)c1` [drawing 599]: the IC50 is under 10 nM.

As for `Cc1cccc(C)c1-c1cccc([C@H](CC(=O)O)NC(=O)[C@H](CC(C)C)n2cc(CN3CC(F)C3)ccc2=O)c1` [drawing 604], the IC50 was under 10 nM.
